Experimental data from ChEMBL document CHEMBL1201862, “PubChem BioAssay data set” (2004).
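Dose response: 5 concentrations. Exposure: 48 h. Format: 96-well plates. Endpoint: linear interpolation; highest concentration if not reached. The concentration for 50% growth inhibition is given as GI50.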 Active and inactive are the calls of the source. Rule as the data show it: active = GI50 up to about 1.1 µM and inactive = higher.

Legend:
Test in all cases: inhibition of tumour cell growth, NCI panel, 48 h
[1] = tested on: 786-0
[2] = tested on: A498
[3] = tested on: A549
[4] = tested on: CAKI-1
[5] = tested on: CCRF-CEM
[6] = tested on: COLO 205
[7] = tested on: DLD-1
[8] = tested on: DMS-273
[9] = tested on: EKVX
[10] = tested on: HCC 2998
[11] = tested on: HCT-116
[12] = tested on: HCT-15
[13] = tested on: HL-60
[14] = tested on: HOP-62
[15] = tested on: HT-29
[16] = tested on: IGROV-1
[17] = tested on: K562
[18] = tested on: KM-20L2
[19] = tested on: KM12
[20] = tested on: LOX IMVI
[21] = tested on: LXFL 529
[22] = tested on: M14
[23] = tested on: M19-MEL
[24] = tested on: MOLT-4
[25] = tested on: Malme-3M
[26] = tested on: NCI-H23
[27] = tested on: NCI-H460
[28] = tested on: NCI-H522
[29] = tested on: OVCAR-3
[30] = tested on: OVCAR-4
[31] = tested on: OVCAR-5
[32] = tested on: OVCAR-8
[33] = tested on: RPMI-8226
[34] = tested on: SF-268
[35] = tested on: SF-295
[36] = tested on: SF-539
[37] = tested on: SK-MEL-28
[38] = tested on: SK-MEL-2
[39] = tested on: SK-MEL-5
[40] = tested on: SK-OV-3
[41] = tested on: SN12C
[42] = tested on: SNB-19
[43] = tested on: SNB-75
[44] = tested on: SNB-78
[45] = tested on: SW-620
[46] = tested on: TK-10
[47] = tested on: U-251
[48] = tested on: UACC-257
[49] = tested on: UACC-62
[50] = tested on: UO-31
[51] = tested on: XF498
[52] = tested on: DMS-114
[53] = tested on: HOP-18
[54] = tested on: HOP-92
[55] = tested on: MCF7
[56] = tested on: NCI-H226
[57] = tested on: NCI/ADR-RES
[58] = tested on: ACHN
[59] = tested on: RXF 393

COc1ccc(CNc2nc3cc(C(F)(F)F)ccc3nc2C)cc1OC
GI50 [1]: 22 µM (inactive)
GI50 [2]: 24.3 µM (inactive)
GI50 [3]: 32.1 µM (inactive)
GI50 [4]: 33 µM (inactive)
GI50 [5]: 31.9 µM (inactive)
GI50 [6]: 32.9 µM (inactive)
GI50 [7]: 35.7 µM (inactive)
GI50 [8]: 20 µM (inactive)
GI50 [9]: 20.2 µM (inactive)
GI50 [10]: 17.9 µM (inactive)
GI50 [11]: 26.2 µM (inactive)
GI50 [12]: 34.8 µM
GI50 [13]: 19.9 µM (inactive)
GI50 [14]: 20.8 µM (inactive)
GI50 [15]: 39.9 µM (inactive)
GI50 [16]: 31 µM (inactive)
GI50 [17]: 29.1 µM (inactive)
GI50 [18]: 44.1 µM (inactive)
GI50 [19]: 23.7 µM (inactive)
GI50 [20]: 24.9 µM (inactive)
GI50 [21]: 35.8 µM (inactive)
GI50 [22]: 20.3 µM (inactive)
GI50 [23]: 32.8 µM (inactive)
GI50 [24]: 17.3 µM (inactive)
GI50 [25]: 20.1 µM (inactive)
GI50 [26]: 35.7 µM (inactive)
GI50 [27]: 30.1 µM (inactive)
GI50 [28]: 21.9 µM (inactive)
GI50 [29]: 32.5 µM (inactive)
GI50 [30]: 12 µM (inactive)
GI50 [31]: 37.5 µM (inactive)
GI50 [32]: 30.3 µM (inactive)
GI50 [33]: 27.1 µM (inactive)
GI50 [34]: 33.3 µM (inactive)
GI50 [35]: 34.4 µM (inactive)
GI50 [36]: 29.2 µM (inactive)
GI50 [37]: 44.1 µM (inactive)
GI50 [38]: 19.5 µM (inactive)
GI50 [39]: 17.3 µM (inactive)
GI50 [40]: 36.7 µM (inactive)
GI50 [41]: 30.5 µM (inactive)
GI50 [42]: 41.6 µM (inactive)
GI50 [43]: 18.5 µM (inactive)
GI50 [44]: 12.2 µM (inactive)
GI50 [45]: 37.9 µM (inactive)
GI50 [46]: 24.3 µM (inactive)
GI50 [47]: 37 µM (inactive)
GI50 [48]: 19 µM (inactive)
GI50 [49]: 31.6 µM (inactive)
GI50 [50]: 24 µM (inactive)
GI50 [51]: 35.3 µM (inactive)

O=C1C=C[C@@H](COC2OC(CO)C(O)C(O)C2O)O1 (some centres undefined)
GI50 [2]: 16.1 µM (inactive)
GI50 [3]: 22 µM (inactive)
GI50 [4]: 17.9 µM (inactive)
GI50 [5]: 1.36 µM (inactive)
GI50 [6]: 6.98 µM (inactive)
GI50 [7]: 3.35 µM (inactive)
GI50 [52]: 14.1 µM (inactive)
GI50 [8]: 14.1 µM (inactive)
GI50 [9]: 20.4 µM (inactive)
GI50 [10]: 40 µM (inactive)
GI50 [11]: > 100 µM (inactive)
GI50 [12]: 3.69 µM
GI50 [13]: 1.72 µM (inactive)
GI50 [53]: 68.2 µM (inactive)
GI50 [14]: 56.2 µM (inactive)
GI50 [54]: 20.5 µM (inactive)
GI50 [15]: 5.86 µM (inactive)
GI50 [16]: 27.6 µM (inactive)
GI50 [17]: 3.42 µM (inactive)
GI50 [19]: 4.95 µM (inactive)
GI50 [20]: 3.88 µM (inactive)
GI50 [23]: 12.8 µM (inactive)
GI50 [55]: 4.46 µM (inactive)
GI50 [24]: 4.39 µM (inactive)
GI50 [56]: 35.7 µM (inactive)
GI50 [26]: 10.9 µM (inactive)
GI50 [27]: 10.3 µM (inactive)
GI50 [28]: 5.14 µM (inactive)
GI50 [57]: 4.38 µM (inactive)
GI50 [29]: 16.8 µM (inactive)
GI50 [30]: 19 µM (inactive)
GI50 [31]: 22 µM (inactive)
GI50 [32]: 14.2 µM (inactive)
GI50 [33]: 3.16 µM (inactive)
GI50 [34]: 25.8 µM (inactive)
GI50 [35]: 18.1 µM (inactive)
GI50 [36]: 5.6 µM (inactive)
GI50 [37]: > 100 µM (inactive)
GI50 [38]: 13.6 µM (inactive)
GI50 [39]: 17.8 µM (inactive)
GI50 [40]: 73.6 µM (inactive)
GI50 [41]: 5.93 µM (inactive)
GI50 [42]: > 10 µM (inactive)
GI50 [43]: 14.9 µM (inactive)
GI50 [45]: 3.78 µM (inactive)
GI50 [47]: 15.7 µM (inactive)
GI50 [48]: 14.3 µM (inactive)
GI50 [49]: 10.2 µM (inactive)
GI50 [50]: 50.2 µM (inactive)
GI50 [51]: 16.6 µM (inactive)

COc1ccc2nc(-c3cccs3)cc(C(O)CN3CCSCC3)c2c1 (centres undefined)
GI50 [1]: 16.8 µM (inactive)
GI50 [3]: 30.1 µM (inactive)
GI50 [58]: 13.5 µM (inactive)
GI50 [4]: 17.3 µM (inactive)
GI50 [5]: 11.9 µM (inactive)
GI50 [6]: 22.9 µM (inactive)
GI50 [7]: 23.6 µM (inactive)
GI50 [52]: 12.2 µM (inactive)
GI50 [8]: 19.5 µM (inactive)
GI50 [9]: 29 µM (inactive)
GI50 [10]: 19.7 µM (inactive)
GI50 [12]: 16.1 µM
GI50 [13]: 2.58 µM (inactive)
GI50 [53]: 19.8 µM (inactive)
GI50 [14]: 24.2 µM (inactive)
GI50 [54]: 14.3 µM (inactive)
GI50 [15]: 25 µM (inactive)
GI50 [16]: 36 µM (inactive)
GI50 [17]: 12.9 µM (inactive)
GI50 [18]: 21.6 µM (inactive)
GI50 [19]: 22.3 µM (inactive)
GI50 [20]: 16.5 µM (inactive)
GI50 [21]: 12.6 µM (inactive)
GI50 [22]: 18.1 µM (inactive)
GI50 [23]: 22.8 µM (inactive)
GI50 [24]: 12.2 µM (inactive)
GI50 [25]: 15.2 µM (inactive)
GI50 [26]: 20.9 µM (inactive)
GI50 [27]: 16.3 µM (inactive)
GI50 [28]: 14.1 µM (inactive)
GI50 [29]: 36.8 µM (inactive)
GI50 [30]: 8.3 µM (inactive)
GI50 [31]: 19.2 µM (inactive)
GI50 [32]: 16.6 µM (inactive)
GI50 [33]: 10.5 µM (inactive)
GI50 [59]: 45 µM (inactive)
GI50 [34]: 27 µM (inactive)
GI50 [35]: 27.6 µM (inactive)
GI50 [36]: 22.1 µM (inactive)
GI50 [37]: 24.9 µM (inactive)
GI50 [38]: 17 µM (inactive)
GI50 [39]: 16.4 µM (inactive)
GI50 [40]: 39.6 µM (inactive)
GI50 [41]: 25.1 µM (inactive)
GI50 [42]: 29.2 µM (inactive)
GI50 [43]: 23.6 µM (inactive)
GI50 [45]: 30.7 µM (inactive)
GI50 [46]: 31.2 µM (inactive)
GI50 [47]: 19.2 µM (inactive)
GI50 [48]: 21.2 µM (inactive)
GI50 [49]: 17.7 µM (inactive)
GI50 [50]: 18.7 µM (inactive)
GI50 [51]: 16.3 µM (inactive)
